Assay results as given in PubChem BioAssay AID1918993 (Molecular Pharmacology Branch, DTP, NCI, 2023).

Tested on: 233499-124-R-J3-PDC complex spheroid growth
Test: Anticancer human tumor 233499-124-R-J3-PDC patient-derived colon adenocarcinoma cell line growth inhibition [AhR]
Details: for IC50: curve of first compound; for viability, T/C: stronger effect = lower value; active = viability on the fitted dose curve at most 10% of control; inactive = the rest
From the text: Multicellular complex tumor spheroid response to aryl hydrocarbon receptor antagonists in combination with a variety of drugs and investigational agents in selected tumor cell lines
The current study was undertaken to assess response to aryl hydrocarbon receptor antagonists in combination with standard-of-care drugs and investigational agents in solid tumor complex spheroid models. Complex spheroids include a stromal component modeled by human endothelial cells (HUVEC) and fibroblasts modeled by human mesenchymal stem cells (MSCs). The concentration ranges selected for each drug and investigational agent were based upon clinically achievable concentrations if the clinical Cmax of the agent was known.
Compounds. The drugs and investigational agents: BAY 2416964 (NSC825713), GNF351 (NSC835774), CH-223191 (NSC835775), CPI-455 (NSC825282), aza-TdCyd (NSC777586), decitabine (NSC127716), belinostat (NSC758774), entinostat (NSC756642), pevonedistat (NSC761192), tazemetostat (NSC777109), talazoparib (NSC765396), olaparib (NSC753686), selinexor (NSC780203), nedisertib (M3814, NSC802822), bortezomib (NSC756655), venetoclax (NSC766270), doxorubicin (NSC123127), elimusertib (BAY189344, NSC800525), ceralasertib (AZD6738, NSC777638), TAK-243 (NSC785004), alisertib (NSC759677), etoposide (NSC141540), topotecan (NSC609699), eribulin (NSC707389), gemcitabine (NSC613327), carboplatin (NSC241240), cisplatin (NSC119875), and SN-38 (NSC673596) were obtained from the National Cancer Institute (NCI) Developmental Therapeutics Program Chemical Repository (32). The FDA-approved anticancer drug set is available from the Developmental Therapeutics Program at https://dtp.cancer.gov/organization/dscb/obtaining/available plates.htm. […] The stock solutions were prepared in dimethyl sulfoxide (DMSO, Sigma-Aldrich, St. Louis, MO, cat. D2650), except for the platinum compounds which were prepared in saline (Quality Biological, Gaithersburg, MD, cat. 114-055-101), at 800-fold the tested concentration and stored at -70 degrees C prior to their use. All drugs and investigational agents were tested over a range starting from a high concentration at or near the clinical Cmax and decreasing in half-log increments. If the clinical Cmax for an agent had not been determined, the highest concentration tested was 10 microM (Table 1).
Cell Culture. All cells were maintained in an incubator at 37 degrees C and 5% CO2 with 95% humidity. The PDC lines were cultured according to standard operating procedures established by the NCI PDMR (https://pdmr.cancer.gov). Briefly, all PDCs were thawed and cultured in Matrigel-coated flasks prepared with a working solution of 1X Ham's F-12 nutrient mix, without supplementation (Invitrogen, Waltham, MA, cat. 11765054), 100 U/mL penicillin-streptomycin (Invitrogen, cat. 15140122), and 2.5% Matrigel (Corning Inc., Corning, NY, cat. 354248) for the first three passages. All PDCs were cultured in complete DMEM/F-12 media containing advanced DMEM/F-12 (Invitrogen, cat. 12634028), 4.9% defined fetal bovine serum, heat inactivated (HyClone Laboratories Inc., Logan, UT, cat. SH30070.03HI), 389 ng/mL hydrocortisone (Sigma-Aldrich, cat. H4001), 9.7 ng/mL human EGF recombinant protein (Invitrogen, cat. PHG0313), 23.4 microg/mL adenine (Sigma-Aldrich, cat. A2786), 97.3 U/mL penicillin-streptomycin (Invitrogen, cat. 15140122), 1.9 mM L-glutamine (Invitrogen, cat. 25030081), and 9.7 microM Y-27632 dihydrochloride (Tocris Bioscience, Bristol, United Kingdom, cat. 1254). The PDCs were cultured in complete DMEM/F12 media without 10 microM Y-27632 dihydrochloride for at least two passages prior to the screen. The established cell lines NCI-H1341 and […] were cultured in DMEM/F-12, HEPES (Invitrogen, cat. 11330032), 5% defined fetal bovine serum (HyClone Laboratories Inc., cat. SH30070.03), ITS premix universal culture supplement [insulin (5 microg/mL), transferrin (5 microg/mL), and selenious acid (5 ng/mL)] […]

[1] = second compound 0.1 µM, first compound 0.0316 µM
[2] = second compound 0.1 µM, first compound 0.1 µM
[3] = second compound 0.1 µM, first compound 0.316 µM
[4] = second compound 0.1 µM, first compound 1 µM
[5] = second compound 0.1 µM, first compound 3.16 µM
[6] = second compound 0.1 µM, first compound 10 µM
[7] = second compound 0.316 µM, first compound 0.0316 µM
[8] = second compound 0.316 µM, first compound 0.1 µM
[9] = second compound 0.316 µM, first compound 0.316 µM
[10] = second compound 0.316 µM, first compound 1 µM
[11] = second compound 0.316 µM, first compound 3.16 µM
[12] = second compound 0.316 µM, first compound 10 µM
[13] = second compound 1 µM, first compound 0.0316 µM
[14] = second compound 1 µM, first compound 0.1 µM
[15] = second compound 1 µM, first compound 0.316 µM
[16] = second compound 1 µM, first compound 1 µM
[17] = second compound 1 µM, first compound 3.16 µM
[18] = second compound 1 µM, first compound 10 µM
[19] = second compound 3.16 µM, first compound 0.0316 µM
[20] = second compound 3.16 µM, first compound 0.1 µM
[21] = second compound 3.16 µM, first compound 0.316 µM
[22] = second compound 3.16 µM, first compound 1 µM
[23] = second compound 3.16 µM, first compound 3.16 µM
[24] = second compound 3.16 µM, first compound 10 µM
[25] = second compound 10 µM, first compound 0.0316 µM
[26] = second compound 10 µM, first compound 0.1 µM
[27] = second compound 10 µM, first compound 0.316 µM
[28] = second compound 10 µM, first compound 1 µM
[29] = second compound 10 µM, first compound 3.16 µM
[30] = second compound 10 µM, first compound 10 µM
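Also: spheroids exposed to agents for seven days before reading.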

COc1cc(C2c3cc4c(cc3C(OC3OC5COC(C)OC5C(O)C3O)C3COC(=O)C23)OCO4)cc(OC)c1O (stereo not given) + CC(CO)NC(=O)c1cc(-c2ccc(Cl)cc2)nn(-c2cnn(C)c2)c1=O
> 10 µM: IC50 (second compound 0.1 µM) | IC50 (second compound 0.316 µM) | IC50 (second compound 1 µM) | IC50 (second compound 3.16 µM) | IC50 (second compound 10 µM)
inactive: viability, T/C [1] 102% | viability, T/C [2] 88.7% | viability, T/C [3] 93.6% | viability, T/C [4] 90.1% | viability, T/C [5] 98.2% | viability, T/C [6] 77.7% | viability, T/C [7] 93.6% | viability, T/C [8] 97.5% | viability, T/C [9] 96.6% | viability, T/C [10] 88.9% | viability, T/C [11] 83.7% | viability, T/C [12] 76.5% | viability, T/C [13] 91% | viability, T/C [14] 94% | viability, T/C [15] 94.2% | viability, T/C [16] 98.4% | viability, T/C [17] 81.4% | viability, T/C [18] 72.8% | viability, T/C [19] 99.2% | viability, T/C [20] 95.5% | viability, T/C [21] 75.2% | viability, T/C [22] 93.5% | viability, T/C [23] 91.5% | viability, T/C [24] 83.9% | viability, T/C [25] 92.7% | viability, T/C [26] 95.5% | viability, T/C [27] 81.8% | viability, T/C [28] 77.6% | viability, T/C [29] 67.4% | viability, T/C [30] 57.3%

COc1cccc2c1C(=O)c1c(O)c3c(c(O)c1C2=O)CC(O)(C(=O)CO)CC3OC1CC(N)C(O)C(C)O1 (stereo not given) + CC(CO)NC(=O)c1cc(-c2ccc(Cl)cc2)nn(-c2cnn(C)c2)c1=O
1.62 µM: IC50 (second compound 10 µM)
3.43 µM: IC50 (second compound 3.16 µM)
4.49 µM: IC50 (second compound 0.1 µM)
active: viability, T/C [30] 6.01%
inactive: viability, T/C [1] 103% | viability, T/C [2] 104% | viability, T/C [3] 87.8% | viability, T/C [4] 78.3% | viability, T/C [5] 58.3% | viability, T/C [6] 31.8% | viability, T/C [7] 98.3% | viability, T/C [8] 100% | viability, T/C [9] 90.4% | viability, T/C [10] 81.6% | viability, T/C [11] 65.1% | viability, T/C [12] 32.5% | viability, T/C [13] 96.7% | viability, T/C [14] 111% | viability, T/C [15] 98.4% | viability, T/C [16] 70.7% | viability, T/C [17] 58.9% | viability, T/C [18] 27.1% | viability, T/C [19] 85.6% | viability, T/C [20] 99.2% | viability, T/C [21] 88.7% | viability, T/C [22] 57.6% | viability, T/C [23] 59.3% | viability, T/C [24] 27% | viability, T/C [25] 90.5% | viability, T/C [26] 76.1% | viability, T/C [27] 72.8% | viability, T/C [28] 58% | viability, T/C [29] 40.3%
3.76 µM: IC50 (second compound 1 µM)
5.32 µM: IC50 (second compound 0.316 µM)

Nc1ncn(C2CC(O)C(CO)O2)c(=O)n1 (stereo not given) + CC(CO)NC(=O)c1cc(-c2ccc(Cl)cc2)nn(-c2cnn(C)c2)c1=O
> 1 µM: IC50 (second compound 0.1 µM) | IC50 (second compound 0.316 µM) | IC50 (second compound 1 µM) | IC50 (second compound 3.16 µM) | IC50 (second compound 10 µM)
inactive: viability, T/C (second compound 0.1 µM, first compound 0.00316 µM) 103% | viability, T/C (second compound 0.1 µM, first compound 0.01 µM) 103% | viability, T/C [1] 104% | viability, T/C [2] 94.1% | viability, T/C [3] 93% | viability, T/C [4] 94.2% | viability, T/C (second compound 0.316 µM, first compound 0.00316 µM) 98.2% | viability, T/C (second compound 0.316 µM, first compound 0.01 µM) 103% | viability, T/C [7] 79.4% | viability, T/C [8] 92.9% | viability, T/C [9] 91% | viability, T/C [10] 95.5% | viability, T/C (second compound 1 µM, first compound 0.00316 µM) 92.3% | viability, T/C (second compound 1 µM, first compound 0.01 µM) 94.5% | viability, T/C [13] 88.9% | viability, T/C [14] 72.5% | viability, T/C [15] 85.6% | viability, T/C [16] 91.9% | viability, T/C (second compound 3.16 µM, first compound 0.00316 µM) 95.9% | viability, T/C (second compound 3.16 µM, first compound 0.01 µM) 104% | viability, T/C [19] 90.4% | viability, T/C [20] 89.5% | viability, T/C [21] 87.1% | viability, T/C [22] 83.2% | viability, T/C (second compound 10 µM, first compound 0.00316 µM) 89.2% | viability, T/C (second compound 10 µM, first compound 0.01 µM) 79.9% | viability, T/C [25] 89.7% | viability, T/C [26] 97.7% | viability, T/C [27] 85.9% | viability, T/C [28] 93.2%
